The values below come from patent publication US9284310B2, “Inhibitors of cytomegalovirus” (Boehringer Ingelheim International GmbH, priority 2012, dated 2016).

One may read the EC50 as the concentration that produces a half-maximal response.

Assay [1] concerns HCMV AD169 virus. The experiment in a line: HCMV AD169 CPE Assay (Example A). Type of assay: cell-based. The conditions noted are these: Human betaherpesvirus 5, AD169, MRC5, 216 h, MRC-5 cells, 9 days, MTS readout. As to the method:
This assay format is a CPE (Cytopathic effect)-based assay that determines the ability of compounds to protect cells against infection with a dye reduction assay (MTS of CellTiter 96® AQueous Non-Radioactive Cell Proliferation Assay from Promega). The conversion of MTS into aqueous, soluble formazan is performed by dehydrogenase enzymes found in metabolically active cells. The quantity of formazan product determined by absorbance at 490 nm is directly proportional to the number of living cells in culture.
(§1) Serial dilutions of the DMSO stock compound solution are performed using DMSO in columns 2-11 and 14-23. DMSO alone is present in columns 1, 12, 13 and 24. Four μL of the DMSO serial dilutions is obtained and diluted using […] of D-MEM 5% FBS culture medium to obtain 4% DMSO (7×).
To perform the assay, 10 µL of the freshly prepared 4% DMSO serial dilution plate is added to the assay plate containing 40 μL of MRC-5 cells plated the day before (10000 cells per well). Twenty μL of diluted virus is added to columns 2-12 and 14-24 and only D-MEM 5% FBS medium to uninfected control (columns 1 and 13) for a final DMSO concentration of 0.6%.
The virus dilution is based on the amount of virus required to obtain a Signal-to-Background of 3-4 (generally between 0.1 and 1 μL of virus stock per well or MOI=0.05). The assay plates are incubated at 37° C. with 5% CO2 for 9 days in order to obtain 100% CPE in infected control without compound (columns 12 and 24). Ten μL of freshly mixed room temperature MTS/PMS (1:20 v/v) is added and the plates are incubated at 37° C. with 5% CO2 for 4-5 h (until signal saturation at 2.3 in the 100% CPE control). The plates are sealed with TopSeal for biosafety and read on the Envision plate reader (Perkin-Elmer) or equivalent at OD 492 nm.

In assay [2] the test system is HCMV AD169-Bac-Luc2 US2-US6 clone #26 virus. The experiment in a line: HCMV AD169-Bac Luciferase Assay (Example B). The assay is classed as cell-based, Human Cytomegalovirus. As to conditions: Human betaherpesvirus 5, AD169, MRC5, 72 h, read-out: EC50 Example B.
From the text: This assay format is a luciferase reporter-based assay that determines the ability of compounds to inhibit the infection by detecting a luciferase signal decrease following the addition of BIGlo substrate (preparation indicated below) directly in the culture media. Mono-oxygenation of luciferin is catalyzed by luciferase in the presence of Mg2+, ATP and molecular oxygen. The generation of oxyluciferin is a luminescent reaction that can be detected with the proper platereader. Human Cytomegalovirus AD169-Bac is obtained from Dr. Thomas Shenk at Princeton University (reference paper Yu et al. 2002—J. Virol. 76 (5):2316-2328, herein incorpoarated by reference) and modified by recombineering to introduce a humanized firefly luciferase gene (Luc2) at the US2-US6 position in the HCMV genome. The virus is expanded in MRC-5 cells.
as §1
To perform the assay, 7 μL of the freshly prepared 4% DMSO serial dilution plate is added to the assay plate containing […] of MRC-5 cells plated the day before (10000 cells per well). Seventeen μL of diluted virus is added to columns 2-12 and 14-24 and only D-MEM 5% FBS medium to uninfected control (columns 1 and 13) for a final DMSO concentration of 0.6%. The virus dilution is based on the amount of virus required to obtain the highest luciferase signal possible without CPE (generally between 0.05 and 1 μL of virus stock per well or MOI=0.02). The assay plates are incubated at 37° C. with 5% CO2 for 3 days. Fifteen μL of room temperature BIGlo buffer is added to room temperature assay plates also incubated at room temperature for 15 minutes. The plates are sealed with TopSeal for biosafety and the luminescence signal is read on the TopCount plate reader (Perkin-Elmer) or equivalent.

Assay [3] has as its system HCMV AD169 virus. The experiment in a line: HCMV AD169 qPCR 96-Well Assay (Example C). Type of assay: cell-based. As to conditions: Human betaherpesvirus 5, AD169, MRC5, 72 h; qPCR of viral DNA, MRC-5 cells, 3 days. As to the method: The hCMV quantitative PCR (qPCR) assay evaluates the ability of a compound to inhibit, directly or indirectly, the replication of hCMV viral DNA during the first 72 h following the infection. Compounds that inhibit either entry or the hCMV polymerase are active in this assay. Compounds are tested in the qPCR assay in 96-well plates, using a 9-point dose-response with 8 compounds for each 96-well plate. The assay was adapted from the method described by Schnepf et al., Rapid determination of antiviral drug susceptibility of human cytomegalovirus by real-time PCR, Antiviral Research 81 (2009) 64-67.
Final Concentrations: • 10 mM Tris-HCl pH8.0 • 50 mM KCl • 2 mM MgCl2 • 0.45% Tween20 • 0.45% Nonidet P40
Serial dilutions of the DMSO stock compound solution are performed using DMSO in columns 2-10. DMSO alone is present in columns 1 and 11. Column 12 remains empty. Diluted compounds are further diluted with DMEM 5% FBS cell culture medium.
To perform the assay, 25 μL of inhibitor dilutions freshly prepared is added to the assay plate containing 50 μL of MRC-5 cells plated the day before (30000 cells per well). In a 9 point dose-response, column 1 contains mock infected cells and serves at negative control, with the appropriate concentration of DMSO, columns 2 to 10 contain compound dilutions and column 11 contains infected cells, with the appropriate concentration of DMSO and serves as the positive control. Column 12 serves for the standard curve in the qPCR process. Twenty-five μL of virus diluted in DMEM 5% FBS medium (to infect at MOI=0.05) is added to columns 2-11 and only D-MEM 5% FBS medium to uninfected control (column 1) for a final DMSO concentration of 0.6%. Incubate plates at 37° C. in 5% CO2 incubator for 3 days. Whole cell lysates are then obtained by adding 100 μL of Cell lysis buffer to each well including freshly added Proteinase K at a ratio of 1:5 (i.e. 200 μL Proteinase K:1000 μL Cell Lysis buffer) and incubating the assay plate at 56° C. for 1 h. Plates are centrifuged at 1300 rpm for 2 minutes to remove any condensation before proceeding with the qPCR.
The cell lysate is carefully pipetted up and down to mix well and diluted 1:40 in H2O to give a final dilution of 1:80 relative to the 100 μL of lysis buffer that Is added to the cells. 5 μL of diluted lysate is used for the qPCR reaction. An incubation of 5 minutes at 95° C. in a PCR machine is required to inactivate the Proteinase K. The cell lysates can be stored at −20° C. or used to perform qPCR immediately.
A 81 bp fragment of US17 gene from AD169 is amplified by PCR using primers qHCMV7 and qHCMV8. The PCR product is cloned into pCR4 TOPO vector (Invitrogen) and a clone harboring the insert is selected. A mitochondrial DNA is also added to normalize the HCMV copy number. Serial dilutions of the US17 plasmid and mitochondrial DNA are performed in heat-inactivated lysis buffer at the same dilution as the cell lysates (1:80). Usually, a standard curve ranging from 10E6 to 10E2 copies (per well) is suitable.
A typical qPCR reaction consists of the following:
A qPCR cycle consists of an initial denaturation of DNA and activation of the Taq enzyme at 95° C. for 10 min followed by 45 cycles of 15 seconds at 95° C. and 1 min at 60° C. Fluorescence is measured at each cycle, following the elongation step at 60° C. The reaction, data acquisition and analysis are performed using AppliedBiosystems 7500 Real time PCR system or other suitable real-time PCR system.
(Real-time PCR tracks product formation cycle by cycle.)

Turning to `O=C(Nc1ccc(-c2cnc(-c3cccc(C(F)(F)F)c3)[nH]2)cn1)c1cscn1` [Compound 1052], the 50% effective concentration (EC50) in the assay on HCMV AD169 virus [1] worked out at 4200 nM; in assay [2], 450 nM; in the assay with HCMV AD169 virus [3], 1800 nM.
As to `O=C(Nc1ccc(-c2nnc(Nc3ccccc3)[nH]2)cc1)c1cscn1` [Compound 1039], the EC50 is 550 nM in the assay with HCMV AD169 virus [1], 103 nM in assay [2] and 390 nM in the assay on HCMV AD169 virus [3].
On the same counts, the results for `O=C(Nc1ccc(-c2cnc(-c3cccc(C(F)(F)F)c3)[nH]2)cc1)c1cscn1` [Compound 1018] are 380 nM, 100 nM and 270 nM.
With `O=C(Nc1ccc(-c2ncc(-c3cccc(C(F)(F)F)c3)[nH]2)cc1)c1csnn1` [Compound 1139], the EC50 with HCMV AD169 virus [1] came to 260 nM; in assay [2] it was 111 nM.
As for `O=C(Nc1ccc(-c2ncc(-c3cccc(Cl)c3)[nH]2)cc1)c1cscn1` [Compound 1045], the EC50 in the assay on HCMV AD169 virus [1] came out at 345 nM; in assay [2], 66 nM.
On the same counts, the results for `O=C(Nc1ccc(-c2cnc(NC(=O)C3(c4cccc(Cl)c4)CCC3)[nH]2)cc1)c1cscn1` [Compound 1004] are 98 nM and 7 nM.
